Laboratory results published in patent US20230038138A1, “COMBINATION THERAPY FOR TREATING CANCER” (ASTRAZENECA AB, priority 2020, published 2023).

System: NIH-OVCAR3 human ovarian tumor cells
Assay: Efficacy in OVCAR3 xenograft model (tumor volume)
Assay type: in vivo, female CB.17 SCID mice
Conditions: dosed for 42 days
From the text: OVCAR3: NIH-OVCAR3 human ovarian tumor cells (15×10^6/mouse) were implanted subcutaneously in female CB.17 SCID mice. The mice were randomized into groups of eight for efficacy, based on tumor volume and treated with either vehicle (0.5% HPMC/0.1% Tween 80), AZD5153; olaparib or the combination of AZD5153 and olaparib approximately 10 days after implantation. AZD5153 was formulated in 0.5% HPMC/0.1% Tween 80 and dosed orally for 42 days. Olaparib was formulated in 50% of 30% w/v HP-β-CD (Kleptose) in purified water and also dosed for 42 days. For the combination groups, olaparib was dosed daily for 42 days and AZD5153 was dosed either daily, for 7 days on and 14 days off for 2 cycles or 14 days on and 7 days off for 2 cycles. Tumor length and width was measured by caliper and tumor volume was calculated using the formula (length×width^2)*π/6 then reported as tumor volume.

Row | Structure (SMILES) | efficacy (tumor volume) as monotherapy
1 | COc1nnc2ccc(N3CCC(c4ccc(OCCN5CCN(C)C(=O)[C@H]5C)cc4)CC3)nn12 [AZD5153, (3R)-4-[2-[4-[1-(3-Methoxy-[1,2,4]triazolo[4,3-b]pyridazin-6-yl)-4-piperidyl]phenoxy]ethyl]-1,3-dimethyl-piperazin-2-one] | modestly efficacious
2 | O=C(c1cc(Cc2n[nH]c(=O)c3ccccc23)ccc1F)N1CCN(C(=O)C2CC2)CC1 [olaparib, 4-[(3-{[4-(cyclopropylcarbonyl)piperazin-1-yl]carbonyl}-4-fluorophenyl)methyl]phthalazin-1(2H)-one] | modestly efficacious
